Drawing on patent US8273890B2 (4SC AG, priority 2007, dated 2012), this text covers IC50 for 21 molecules.

The IC50 is the concentration at which inhibition is half-maximal.

In this assay the target is T1, recombinant Plk1 protein (Homo sapiens, UniProt P53350).
T1 construct: histidine tag (N); made in house; host or cells: SF9 insect cells
T1 sequence (P53350 whole entry): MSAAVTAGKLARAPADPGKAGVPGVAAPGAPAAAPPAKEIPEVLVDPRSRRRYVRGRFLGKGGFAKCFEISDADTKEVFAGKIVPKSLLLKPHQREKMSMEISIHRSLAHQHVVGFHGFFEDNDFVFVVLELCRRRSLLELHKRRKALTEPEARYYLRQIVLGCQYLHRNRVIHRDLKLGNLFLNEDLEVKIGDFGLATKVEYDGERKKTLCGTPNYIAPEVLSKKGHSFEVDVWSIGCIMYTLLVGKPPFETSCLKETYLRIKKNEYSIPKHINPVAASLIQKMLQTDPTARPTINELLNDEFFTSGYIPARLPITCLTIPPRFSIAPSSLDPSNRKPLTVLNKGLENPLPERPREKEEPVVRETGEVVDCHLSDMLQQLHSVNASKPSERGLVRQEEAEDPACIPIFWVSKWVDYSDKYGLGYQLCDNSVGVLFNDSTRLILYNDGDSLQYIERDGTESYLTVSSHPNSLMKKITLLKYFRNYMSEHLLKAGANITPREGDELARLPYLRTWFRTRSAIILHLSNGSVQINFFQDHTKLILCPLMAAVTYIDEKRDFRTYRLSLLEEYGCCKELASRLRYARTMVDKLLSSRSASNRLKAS
The assay is described as follows: Plk1 kinase activity inhibition assay (33P-ATP, alpha casein substrate, flash plates). The class given is biochemical. To be noted: enzymatic assay, 100 nM Li-ATP, 80 minutes at 30° C. The gist of the method: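 N-terminally His-tagged human Plk1 from SF9 cells (50–100 ng/well) phosphorylated alpha casein (500 ng/well) with 100 nM ATP including 33P-ATP at pH 7.5, with Mg2+ and Mn2+, 80 min at 30 °C. 33P incorporation read on scintillator-coated flash plates; IC50 derived.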
With `CC(C)N1CCN(Cc2cc3c(cn2)ncn3-c2cc(O[C@H](C)c3ccccc3C(F)(F)F)c(C(N)=O)s2)CC1` [Example 121, 5-{6-[(4-isopropylpiperazin-1-yl)methyl]-1H-imidazo[4,5-c]pyridin-1-yl}-3-{(1R)-1-[2-(trifluoromethyl)phenyl]ethoxy}thiophene-2-carboxamide], the IC50 was under 10 nM.
For `CC(Oc1cc(-n2cnc3cc(CO)ncc32)sc1C(N)=O)c1ccccc1F` (stereo not drawn) [Example 163, 3-[-1-(2-fluorophenyl)ethoxy]-5-[6-(hydroxymethyl)-3H-imidazo[4,5-c]pyridin-3-yl]thiophene-2-carboxamide], the IC50 lay in the range of 10 to 100 nM.
On to `CCC(Oc1cc(-n2cnc3cnc(CN4CCN(C)CC4)cc32)sc1C(N)=O)c1ccccc1Cl` (stereo not drawn) [Example 102, 3-{[1-(2-chlorophenyl)propyl]oxy}-5-{6-[(4-methylpiperazin-1-yl)methyl]-1H-imidazo[4,5-c]pyridin-1-yl}thiophene-2-carboxamide], for which the IC50 was in the range of 10 to 100 nM.
Consider `COc1cc2c(cn1)ncn2-c1cc(OCc2ccccc2C(F)(F)F)c(C(N)=O)s1` [Example 16, 5-(6-Methoxy-1H-imidazo[4,5-c]pyridin-1-yl)-3-{[2-(trifluoromethyl)benzyl]oxy}thiophene-2-carboxamide], for which the IC50 was in the range of 10 to 100 nM.
As for `COCCNC(=O)c1cc2c(cn1)ncn2-c1cc(OCc2ccccc2C(F)(F)F)c(C(N)=O)s1` [Example 4, 1-(5-Carbamoyl-4-{[2-(trifluoromethyl)benzyl]oxy}-2-thienyl)-N-(2-methoxyethyl)-1H-imidazo[4,5-c]pyridine-6-carboxamide], the IC50 was in the range of 100 to 1000 nM.
The same measure for `CC(Oc1cc(-n2cnc3cc(CO)ncc32)sc1C(N)=O)c1ccccc1Cl` (stereo not drawn) [Example 125, 3-[-1-(2-chlorophenyl)ethoxy]-5-[6-(hydroxymethyl)-3H-imidazo[4,5-c]pyridin-3-yl]thiophene-2-carboxamide]: under 10 nM; for `C[C@@H](Oc1cc(-n2cnc3cnc(CN4CCN(CC(=O)N5CCOCC5)CC4)cc32)sc1C(N)=O)c1ccccc1C(F)(F)F` [Example 124, 5-(6-{[4-(2-morpholin-4-yl-2-oxoethyl)piperazin-1-yl]methyl}-1H-imidazo[4,5-c]pyridin-1-yl)-3-{(1R)-1-[2-(trifluoromethyl)phenyl]ethoxy}thiophene-2-carboxamide]: 10 to 100 nM.
`CC(Oc1cc(-n2cnc3cnc(CN4CCN(C(=O)N(C)C)CC4)cc32)sc1C(N)=O)c1ccccc1OC(F)F` (stereo not drawn) [Example 134, 4-{[1-(5-carbamoyl-4-{1-[2-(difluoromethoxy)phenyl]ethoxy}-2-thienyl)-1H-imidazo[4,5-c]pyridin-6-yl]methyl}-N,N-dimethylpiperazine-1-carboxamide]: the IC50 is under 10 nM.
Consider `CCC(Oc1cc(-n2cnc3cnc(CN4CCN(CCN(C)C)CC4)cc32)sc1C(N)=O)c1ccccc1Cl` (stereo not drawn) [Example 151, 3-{[1-(2-chlorophenyl)propyl]oxy}-5-[6-({4-[2-(dimethylamino)ethyl]piperazin-1-yl}methyl)-1H-imidazo[4,5-c]pyridin-1-yl]thiophene-2-carboxamide], for which the IC50 fell in the range of 100 to 1000 nM.
Consider `C[C@@H](Oc1cc(-n2cnc3cnc(CN4CCN(S(=O)(=O)c5ccccc5)CC4)cc32)sc1C(N)=O)c1ccccc1C(F)(F)F` [Example 58, 5-(6-{[4-(phenylsulfonyl)piperazin-1-yl]methyl}-1H-imidazo[4,5-c]pyridin-1-yl)-3-{(1R)-1-[2-(trifluoromethyl)phenyl]ethoxy}thiophene-2-carboxamide], for which the IC50 is 10 to 100 nM.
Take `C[C@@H](Oc1cc(-n2cnc3cnc(CN4CCN(C)CC4)cc32)sc1C(N)=O)c1ccccc1F` [Example 101, 3-[(1R)-1-(2-fluorophenyl)ethoxy]-5-{6-[(4-methylpiperazin-1-yl)methyl]-1H-imidazo[4,5-c]pyridin-1-yl}thiophene-2-carboxamide]: the IC50 is under 10 nM.
For `CCC(Oc1cc(-n2cnc3cnc(CO)cc32)sc1C(N)=O)c1ccccc1Cl` (stereo not drawn) [Example 56, 3-{[1-(2-chlorophenyl)propyl]oxy}-5-[6-(hydroxymethyl)-1H-imidazo[4,5-c]pyridin-1-yl]thiophene-2-carboxamide] the value was under 10 nM.
For `CC(c1ccccc1)N1CCN(Cc2cc3c(cn2)ncn3-c2cc(O[C@H](C)c3ccccc3C(F)(F)F)c(C(N)=O)s2)CC1` (stereo partly drawn) [Example 119, 5-(6-{[4-(1-phenylethyl)piperazin-1-yl]methyl}-1H-imidazo[4,5-c]pyridin-1-yl)-3-{(1R)-1-[2-(trifluoromethyl)phenyl]ethoxy}thiophene-2-carboxamide] the value was under 10 nM; for `CC(Oc1cc(-n2cnc3cc(CN4CCS(=O)(=O)CC4)ncc32)sc1C(N)=O)c1ccccc1F` (stereo not drawn) [Example 161, 5-{6-[(1,1-dioxidothiomorpholin-4-yl)methyl]-3H-imidazo[4,5-c]pyridin-3-yl}-3-[-1-(2-fluorophenyl)ethoxy]thiophene-2-carboxamide], 1000 to 10000 nM; for `NC(=O)c1sc(-n2cnc3cc(CO)ncc32)cc1OCc1ccccc1C(F)(F)F` [Example 10, 5-[6-(Hydroxymethyl)-3H-imidazo[4,5-c]pyridin-3-yl]-3-{[2-(trifluoromethyl)benzyl]oxy}thiophene-2-carboxamide], 100 to 1000 nM.
As to `CCNCc1cc2ncn(-c3cc(O[C@H](C)c4ccccc4C(F)(F)F)c(C(N)=O)s3)c2cn1` [Example 117, 5-{6-[(ethylamino)methyl]-3H-imidazo[4,5-c]pyridin-3-yl}-3-{(1R)-1-[2-(trifluoromethyl)phenyl]ethoxy}thiophene-2-carboxamide], the IC50 fell in the range of 100 to 1000 nM.
Regarding `CC1CN(Cc2cc3c(cn2)ncn3-c2cc(O[C@H](C)c3ccccc3C(F)(F)F)c(C(N)=O)s2)C(C)CN1` (stereo partly drawn) [Example 83, 5-{6-[(2,5-dimethylpiperazin-1-yl)methyl]-1H-imidazo[4,5-c]pyridin-1-yl}-3-{(1R)-1-[2-(trifluoromethyl)phenyl]ethoxy}thiophene-2-carboxamide], the IC50 is 10 to 100 nM.
For `C[C@@H](Oc1cc(-n2cnc3cnc(CN4CCN(C5CC5)CC4)cc32)sc1C(N)=O)c1ccccc1C(F)(F)F` [Example 60, 5-{6-[(4-cyclopropylpiperazin-1-yl)methyl]-1H-imidazo[4,5-c]pyridin-1-yl}-3-{(1R)-1-[2-(trifluoromethyl)phenyl]ethoxy}thiophene-2-carboxamide] the value was under 10 nM; for `NC(=O)c1sc(-n2cnc3ccncc32)cc1OCc1ccc(C(F)(F)F)cc1` [Example 28, 5-(3H-imidazo[4,5-c]pyridin-3-yl)-3-{[4-(trifluoromethyl)benzyl]oxy}thiophene-2-carboxamide], 100 to 1000 nM.
Take `CC(=O)N1CCN(Cc2cc3c(cn2)ncn3-c2cc(O[C@H](C)c3ccccc3C(F)(F)F)c(C(N)=O)s2)CC1` [Example 118, 5-{6-[(4-acetylpiperazin-1-yl)methyl]-1H-imidazo[4,5-c]pyridin-1-yl}-3-{(1R)-1-[2-(trifluoromethyl)phenyl]ethoxy}thiophene-2-carboxamide]: the IC50 was 10 to 100 nM.
Turning to `NC(=O)c1sc(-n2cnc3cnccc32)cc1OCc1ccccc1OC(F)F` [Example 42, 3-{[2-(difluoromethoxy)benzyl]oxy}-5-(1H-imidazo[4,5-c]pyridin-1-yl)thiophene-2-carboxamide], the IC50 was under 10 nM.
